These results are taken from ChEMBL document CHEMBL4811240, “Discovery of N-substituted sulfamoylbenzamide derivatives as novel inhibitors of STAT3 signaling pathway based on Niclosamide” (Eur J Med Chem, 2021).

Active and inactive are the calls of the source. The rule behind the calls is not given here. Some results are limits rather than exact numbers.

In series [1] the test system is MDA-MB-231. The experiment in a line: Antiproliferative activity against human MDA-MB-231 cells assessed as inhibition of cell viability at 10 uM after 48 hrs by MTT assay relative to control. The format is functional.
Series [2] deals with HCT-116. The experiment in a line: Antiproliferative activity against human HCT116 cells assessed as inhibition of cell viability at 10 uM after 48 hrs by MTT assay relative to control. The format is functional. (Formazan colour is commonly taken as a measure of viable cells.)
Series [3] deals with SW480. The experiment in a line: Antiproliferative activity against human SW480 cells assessed as inhibition of cell viability at 10 uM after 48 hrs by MTT assay relative to control. In kind it is functional.
The next series has as its system L3.6pl. The experiment in a line: Antiproliferative activity against human L3.6 cells assessed as inhibition of cell viability at 10 uM after 48 hrs by MTT assay relative to control. In kind it is functional.
Series [4] can be described thus: Lipophilicity, log P of the compound. Conditions: octanol/water. The format is physicochemical.
Series [5] relates to MDA-MB-231. The experiment in a line: Antiproliferative activity against human MDA-MB-231 cells assessed as inhibition of cell viability after 48 hrs by MTT assay. In kind it is functional, cell-based. Conditions: MDA-MB-231, 48 h.
The subject of series [6] is HCT-116. The experiment in a line: Antiproliferative activity against human HCT-116 cells assessed as inhibition of cell viability after 48 hrs by MTT assay. In kind it is functional, cell-based. Conditions: HCT-116, 48 h.
For series [7], the system named is SW480. The experiment in a line: Antiproliferative activity against human SW480 cells assessed as inhibition of cell viability after 48 hrs by MTT assay. In kind it is functional, cell-based. Conditions: SW480, 48 h.
Series [8] addresses Signal transducer and activator of transcription 3 (Homo sapiens) (UniProt P40763). The experiment in a line: Inhibition of STAT3 promoter activity in human MDA-MB-231 cells at 1 uM incubated for 24 hrs by dual luciferase reporter assay. The format is cell-based. A general note: Reporter assays use an easily measured gene product as a stand-in for the process of interest.
Series [9] deals with MDA-MB-231. The experiment in a line: Induction of apoptosis in human MDA-MB-231 cells assessed as apoptotic cells at 10 uM measured after 24 hrs by annexinV-FITC/propidium iodide staining based flow cytometry analysis (reference value: 2.49%). In kind it is functional. For orientation: Flow cytometry measures light scatter and fluorescence of single cells or particles in a stream.

In series [10] the test system is MDA-MB-231. The experiment in a line: Inhibition of human MDA-MB-231 cells migration a 1000 nM after 24 hrs by crystal violet staining based transwell migration assay. The format is functional, cell-based.

Sequence of Signal transducer and activator of transcription 3 (Homo sapiens) (P40763 whole entry): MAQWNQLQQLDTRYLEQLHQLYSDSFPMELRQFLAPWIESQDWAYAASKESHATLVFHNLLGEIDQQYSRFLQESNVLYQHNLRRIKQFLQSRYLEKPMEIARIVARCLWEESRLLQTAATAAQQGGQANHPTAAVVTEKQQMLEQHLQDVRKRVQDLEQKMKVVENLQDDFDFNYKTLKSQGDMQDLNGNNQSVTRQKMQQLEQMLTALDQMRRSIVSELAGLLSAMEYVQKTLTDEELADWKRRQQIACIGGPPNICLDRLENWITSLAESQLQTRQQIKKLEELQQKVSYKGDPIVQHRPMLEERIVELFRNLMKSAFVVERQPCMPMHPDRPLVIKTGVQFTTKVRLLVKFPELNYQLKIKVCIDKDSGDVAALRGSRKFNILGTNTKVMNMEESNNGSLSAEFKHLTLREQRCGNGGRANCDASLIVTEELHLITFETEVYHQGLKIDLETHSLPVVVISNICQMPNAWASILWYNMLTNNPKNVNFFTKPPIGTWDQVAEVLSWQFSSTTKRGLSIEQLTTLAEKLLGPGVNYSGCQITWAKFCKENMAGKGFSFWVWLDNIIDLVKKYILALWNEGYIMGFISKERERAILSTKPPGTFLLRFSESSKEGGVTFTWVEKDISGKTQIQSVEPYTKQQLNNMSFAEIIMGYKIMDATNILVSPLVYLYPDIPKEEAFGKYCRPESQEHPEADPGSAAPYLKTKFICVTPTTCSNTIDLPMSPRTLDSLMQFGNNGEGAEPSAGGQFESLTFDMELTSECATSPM

One may read the inhibition as the drop in the measured response relative to a control, in per cent. Broadly, the logP is a log measure of how a compound divides between an organic and an aqueous phase. What is called IC50 is the concentration needed to halve the response being measured. With `COc1cc(NC(=O)c2cccc(S(N)(=O)=O)c2)cc(OC)c1OC`, the inhibition at 10 µM came to 59.4% with MDA-MB-231 [1], 57.7% in the series on HCT-116 [2], 26.9% in the series on SW480 [3] and 19.5% in the series with L3.6pl. Moreover, the logP in [4] turned out to be 0.79. In addition, the IC50 with MDA-MB-231 [5] was 12.7 µM; in the series on HCT-116 [6], 10.7 µM; in the series on SW480 [7] it was above 20 µM.
As to `COc1cc(NC(=O)c2cccc(S(N)(=O)=O)c2)c(C(=O)O)cc1OC`, the inhibition at 10 µM in the series on MDA-MB-231 [1] was 52.1%; in the series with HCT-116 [2], 22.1%; in the series on SW480 [3], 22.9%; with L3.6pl, 23.3%. This compound also came in with a log partition coefficient (logP) in series [4] of 0.37. Besides, the IC50 is 17.9 µM in the series with MDA-MB-231 [5], above 20 µM in the series on HCT-116 [6] and above 20 µM in the series on SW480 [7].
On to `NS(=O)(=O)c1cc(C(=O)Nc2ccc(C(F)(F)F)cc2)ccc1Cl`, for which the inhibition at 10 µM in the series on MDA-MB-231 [1] came out at 27.3%; in the series with HCT-116 [2] it was 55.4%; in the series with SW480 [3] it was 47.4%; in the series with L3.6pl, 29.6%. The compound further had a logP in [4] of 2.76. The concentration for half-maximal inhibition (IC50) with MDA-MB-231 [5] was 7.32 µM; in the series on HCT-116 [6], 10.8 µM; with SW480 [7] it was above 20 µM.
In the case of `COc1ccccc1CNC(=O)c1ccc(Cl)c(S(N)(=O)=O)c1`, the inhibition at 10 µM with MDA-MB-231 [1] worked out at 35%; with HCT-116 [2], 50%; in the series with SW480 [3], 42.8%; in the series with L3.6pl, 17.3%. Also, the logP in series [4] was determined as 1.77. The IC50 in the series with MDA-MB-231 [5], in the series with HCT-116 [6] and with SW480 [7] was above 20 µM each time.
Consider `NS(=O)(=O)c1cc(C(=O)NCc2cccc(Cl)c2Cl)ccc1Cl`, for which the inhibition at 10 µM in the series on MDA-MB-231 [1] turned out to be 51.5%; with HCT-116 [2], 70.4%; in the series with SW480 [3] it was 19.6%; in the series on L3.6pl, 11.6%. The logP in series [4] was 2.97. Further, the IC50 is above 20 µM in the series on MDA-MB-231 [5], 9.62 µM in the series on HCT-116 [6] and above 20 µM in the series on SW480 [7].
Turning to `COc1cccc(NC(=O)c2cccc(S(N)(=O)=O)c2)c1`, the inhibition at 10 µM with MDA-MB-231 [1] came to 57.6%; in the series with HCT-116 [2], 51.4%; in the series on SW480 [3], 28.3%; with L3.6pl, 15.2%. The logP in [4] worked out at 0.96. The IC50 with MDA-MB-231 [5] is 13.6 µM; with HCT-116 [6] it was 11.2 µM; in the series on SW480 [7], above 20 µM.
In the case of `NS(=O)(=O)c1cc(C(=O)Nc2ccc([N+](=O)[O-])cc2Cl)ccc1Cl`, the inhibition at 10 µM in the series on MDA-MB-231 [1] was determined as 56.3%; with HCT-116 [2], 49.5%; with SW480 [3], 38.2%; in the series on L3.6pl it was 12.3%. The logP in series [4] was 2.73. Moreover, the IC50 is 14.3 µM in the series on MDA-MB-231 [5], 19.1 µM in the series on HCT-116 [6] and above 20 µM in the series on SW480 [7].
For `NS(=O)(=O)c1cccc(NC(=O)c2ccc(Cl)c(S(N)(=O)=O)c2)c1`, the inhibition at 10 µM in the series with MDA-MB-231 [1] amounted to 52.8%; with HCT-116 [2] it was 52.2%; in the series with SW480 [3], 34.3%; in the series with L3.6pl, 12.1%. This compound also registered a logP in series [4] of 1.19. The IC50 in the series with MDA-MB-231 [5] is 11.9 µM; in the series on HCT-116 [6] it was 17.2 µM; with SW480 [7], above 20 µM.
As for `O=C(Nc1ccc([N+](=O)[O-])cc1Cl)c1cc(Cl)ccc1O` [NICLOSAMIDE], the inhibition at 10 µM with MDA-MB-231 [1] was 91.5%; in the series on HCT-116 [2], 73.8%; in the series with SW480 [3] it was 76.8%; in the series on L3.6pl it was 66.2%. The same compound displayed a logP in series [4] of 3.17. The concentration for half-maximal inhibition (IC50) in the series on MDA-MB-231 [5] turned out to be 0.8 µM. The same compound showed an inhibition in [8] of 88.2%. In addition, in the series with MDA-MB-231 [9], the Activity was 19.91%. For the same compound, in the series on MDA-MB-231 [10], the inhibition entry is “Active”.
